Structures are written as SMILES. Where two headings read alike, the source gives them in different places.

The target of the test is T1, human Nav1.7 (Homo sapiens, UniProt Q15858).
T1 construct: expressed in transfected cells; host or cells: HEK 293T
Kind of test: Patch clamp recording of heterologously expressed human Nav1.7 currents in HEK 293T cells. In kind it is cell-based. Particulars: for IC50: 50-ms depolarizing pulse to 0 mV, HEK 293T cells, mean±SEM (n=4-10), read-out: IC50 for human Nav1.7 inhibition. Here is the method: FIG. 1. A) Families of human Nav1.7 current traces in the presence of increasing concentrations of mepyramine (0-100 μM). The current was elicited by a 50-ms depolarizing pulse to 0 mV from a holding potential of −100 mV (top) or −60 mV (bottom). Voltage steps were applied every 15 s. B) Cumulative dose-response curves for human Nav1.7 inhibition by mepyramine derived from experiments as in A. The IC50 values were 4±0.1 μM at Vh of −60 mV (empty circles) or 15.3±0.1 μM at Vh of −100 mV (filled circles). Each data point is the mean±SEM (n=4-10). C) Representative I-V curve family of hNav1.7 currents recorded using a protocol (inset) where cells were depolarized to a variety of potentials from a holding potential of −100 mV. D) Normalized human Nav1.7 activation curves obtained from experiments as in C. Curves were fit by using a first-order Boltzmann relations (n=16).
Human embryonic kidney (HEK) 293T cells were cultured as described in Hao et al. (Neuron, 2013, 77:899-914) and were recorded 48 hours after co-transfection with human Nav1.7 (hNav1.7) and green fluorescent protein clones. Patch clamp recordings were performed using borosilicate electrodes (Harvard Apparatus) having a resistance of […] when filled with the intracellular solution. Recordings were made at room temperature (20-24° C.) using an Axopatch 200B amplifier (Axon Instruments), filtered at 1 kHz, and digitally sampled at 5-20 kHz. Data acquisition was performed with pClamp 10.2, and data were analyzed using Prism 4 software.
For voltage clamp protocols, currents were leak-subtracted by using a P/6 protocol. Voltage errors were minimized using 75-80% series resistance compensation. Intracellular pipette solution consisted of (mM): 130 CsCl, 10 Hepes, 8 NaCl, 0.4 NaGTP, 4 MgATP, 1 MgCl2, 1 CaCl2 and 10 EGTA (adjusted to pH7.3 with CsOH, ˜300 mOsm/l). […] Stock solution of Mepyramine […] was dissolved in distilled water. Cells were perfused with bath solution at flow rate of 5 mL/min.
The dose-response curve for mepyramine was fitted with the Hill equation: I/Imax=[M]^nH/(IC50^nH+[M]^nH), where IC50 is the half-maximal inhibitory concentration and nH the Hill coefficient. The activation curve (G-V) was fitted using Boltzmann function: G/Gmax=1/(1+exp^[(V1/2−V)/k]) where G/Gmax is the normalized conductance, V1/2 is the voltage of half-maximum conductance activation, and k is the steepness factor. Data were presented as mean±SEM.
A general note: Patch clamp records ionic current or voltage across a cell membrane.

Setting [1] is: HEK cells, in the absence of histamine and in the absence of H1 receptors.

T1 sequence (Q15858 whole entry): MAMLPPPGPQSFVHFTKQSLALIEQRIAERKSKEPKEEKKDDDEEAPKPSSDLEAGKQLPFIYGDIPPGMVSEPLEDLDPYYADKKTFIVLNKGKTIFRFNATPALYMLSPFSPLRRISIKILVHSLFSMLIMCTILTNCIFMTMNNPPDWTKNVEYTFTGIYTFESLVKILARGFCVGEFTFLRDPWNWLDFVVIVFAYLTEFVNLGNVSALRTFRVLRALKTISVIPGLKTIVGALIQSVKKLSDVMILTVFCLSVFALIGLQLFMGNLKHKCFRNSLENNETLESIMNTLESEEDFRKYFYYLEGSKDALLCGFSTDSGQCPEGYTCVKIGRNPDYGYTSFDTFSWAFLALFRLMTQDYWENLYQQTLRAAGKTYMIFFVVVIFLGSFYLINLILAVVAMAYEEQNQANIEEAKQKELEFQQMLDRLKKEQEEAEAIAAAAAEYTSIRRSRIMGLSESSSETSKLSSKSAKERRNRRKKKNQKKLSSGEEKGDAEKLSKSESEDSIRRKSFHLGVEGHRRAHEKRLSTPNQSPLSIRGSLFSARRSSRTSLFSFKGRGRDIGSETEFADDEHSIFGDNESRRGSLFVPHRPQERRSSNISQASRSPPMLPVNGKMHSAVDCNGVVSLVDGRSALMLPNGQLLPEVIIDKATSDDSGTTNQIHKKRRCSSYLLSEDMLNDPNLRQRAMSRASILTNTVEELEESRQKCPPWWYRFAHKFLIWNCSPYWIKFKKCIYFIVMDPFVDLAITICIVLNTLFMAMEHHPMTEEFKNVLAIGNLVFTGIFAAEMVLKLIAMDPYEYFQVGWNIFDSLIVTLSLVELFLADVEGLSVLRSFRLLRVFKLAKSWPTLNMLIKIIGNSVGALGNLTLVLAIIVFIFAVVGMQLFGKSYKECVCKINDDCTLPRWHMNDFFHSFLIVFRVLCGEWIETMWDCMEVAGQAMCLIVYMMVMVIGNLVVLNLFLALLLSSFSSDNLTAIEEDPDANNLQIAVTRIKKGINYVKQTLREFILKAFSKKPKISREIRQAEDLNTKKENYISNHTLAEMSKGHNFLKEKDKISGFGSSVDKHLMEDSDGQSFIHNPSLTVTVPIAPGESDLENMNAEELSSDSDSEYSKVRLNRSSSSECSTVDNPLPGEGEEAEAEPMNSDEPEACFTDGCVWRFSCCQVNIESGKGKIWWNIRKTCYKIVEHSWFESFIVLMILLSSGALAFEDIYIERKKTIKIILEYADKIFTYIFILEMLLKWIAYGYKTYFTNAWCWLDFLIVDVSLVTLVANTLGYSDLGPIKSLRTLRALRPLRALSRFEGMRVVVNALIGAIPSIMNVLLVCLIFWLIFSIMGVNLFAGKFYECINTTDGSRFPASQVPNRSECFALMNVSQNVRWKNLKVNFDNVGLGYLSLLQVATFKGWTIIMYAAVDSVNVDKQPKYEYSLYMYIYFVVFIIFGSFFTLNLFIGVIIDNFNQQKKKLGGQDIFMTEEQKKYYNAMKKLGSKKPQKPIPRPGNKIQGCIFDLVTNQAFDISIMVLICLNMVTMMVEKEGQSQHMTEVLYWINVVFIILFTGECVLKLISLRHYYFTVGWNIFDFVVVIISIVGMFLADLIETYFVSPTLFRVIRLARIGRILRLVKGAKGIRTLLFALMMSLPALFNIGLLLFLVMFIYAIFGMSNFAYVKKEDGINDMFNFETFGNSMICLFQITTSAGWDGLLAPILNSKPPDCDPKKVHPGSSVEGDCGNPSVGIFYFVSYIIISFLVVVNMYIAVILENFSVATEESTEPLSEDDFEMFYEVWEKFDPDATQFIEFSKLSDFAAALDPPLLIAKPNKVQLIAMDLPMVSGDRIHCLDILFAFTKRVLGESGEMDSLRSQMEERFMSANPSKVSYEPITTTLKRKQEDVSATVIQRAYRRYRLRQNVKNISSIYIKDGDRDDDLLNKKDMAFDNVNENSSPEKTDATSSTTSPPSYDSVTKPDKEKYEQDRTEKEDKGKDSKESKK

Broadly, the IC50 is the concentration that gives 50% inhibition. For `COc1ccc(CN(CCN(C)C)c2ccccn2)cc1` [mepyramine, N,N-dimethyl-N′-(4-methoxybenzyl)-N′-(2-pyridyl) ethylenediamine], under setting [1], the “Dependence of the effect on H1 receptors” value is “independent of the H1 receptors”. Besides, under setting [1], the “Inhibition of heterologously expressed human Nav1.7 channels” value is on record as “inhibits”. For the same compound, the IC50 is, setting by setting: (Vh of −60 mV) 4 ± 0.1 µM; (Vh of −100 mV) 15.3 ± 0.1 µM.

Values taken from patent US20230321059A1, “MEPYRAMINE FOR USE IN THE TOPICAL TREATMENT OF NEUROPATHIC PAIN” (Assistance Publique - Hopitaux de Paris, priority 2020, published 2023).
